Data reported in article PMC10409515, “Enzymatic properties of alcohol dehydrogenase PedE_M.s. derived from Methylopila sp. M107 and its broad metal selectivity” (Frontiers in Microbiology, 2023).

System: T1, PedE_M.s.
T1 construct: gene pedE; C-terminal 8xHis tag; codon-optimised gene expressed in Methylorubrum extorquens AM1 (quadruple mutant) with Ca2+; Ni-NTA purified; signal peptide not discussed
Assay: PMS-mediated DCPIP reduction at […] nm; Michaelis-Menten fit
Format: biochemical
Conditions: PMS 1 mM, DCPIP 150 uM, 45 mM NH4Cl, 100 mM Tris-HCl pH 9.0; optimal conditions (30 °C optimum; general assay text says about 26 °C); Ca2+-PQQ enzyme; read-out: Methylopila sp. M107 / Km

Compound | Km [µM]
CO [Methanol] | 25 ± 6
CCCCCCO [Hexanol] | 79 ± 14
CCO [Ethanol] | 28 ± 6
CC(C)O [Isopropanol] | 35 ± 12
CCCCCO [Pentanol] | 49 ± 14
C=O [Formaldehyde] | 39 ± 21
CCCCO [Butanol] | 39 ± 15
CCCO [Propanol] | 25 ± 6
